ChEMBL document CHEMBL1148453, “Parallel solution-phase synthesis of conformationally restricted congeners of pentamidine and evaluation of their antiplasmodial activities” (J Med Chem, 2004)

Columns and labels:
Nucleic Acid = test: Binding affinity for poly dA-dT DNA by measuring the change in midpoint of the thermal denaturation curves; assay type: nucleic-acid assay
Plasmodium falciparum [1] = test: microbe, parasite or virus in culture
Description: In vitro antiparasitic activity against chloroquine-sensitive Plasmodium falciparum Haiti 135

Calf thymus DNA = test: Binding affinity for calf thymus DNA by measuring the change in midpoint of the thermal denaturation curves; assay type: nucleic-acid assay; settings: Bos taurus
Plasmodium falciparum [2] = test: microbe, parasite or virus in culture; remark: listed apart in the source
Description: In vitro antiparasitic activity against chloroquine-resistant Plasmodium falciparum Indochina I

A549 = test: Cytotoxicity against human lung cell carcinoma A549 cell line; assay type: functional, cell-based

SMILES | ΔTm (Nucleic Acid) | IC50 (Plasmodium falciparum [1]) | ΔTm (Calf thymus DNA) | IC50 (Plasmodium falciparum [2]) | IC50 (A549)
CCOC(=O)c1ccc(N2CCN(c3ccc(C(=O)OCC)cc3)CC2)cc1 | 0 °C | > 500 nM | 0.6 °C | > 500 nM | –
CN1CCN(C)C1c1ccc(N2CCN(c3ccc(C4N(C)CCN4C)cc3)CC2)cc1 | 1.8 °C | > 500 nM | 2.4 °C | > 500 nM | –
c1ccc(N2CCN(c3ccccc3)C2c2ccc(N3CCN(c4ccc(C5N(c6ccccc6)CCN5c5ccccc5)cc4)CC3)cc2)cc1 | 0 °C | > 500 nM | -1.2 °C | > 500 nM | –
NNC(=O)c1ccc(N2CCN(c3ccc(C(=O)NN)cc3)CC2)cc1 | 0 °C | > 500 nM | 0.1 °C | > 500 nM | –
CCN(CC)CCCC(C)Nc1ccnc2cc(Cl)ccc12 (stereo unspecified) [CHLOROQUINE] | – | – | – | – | 40000 nM
c1cc(N2CCN(c3ccc(C4OCCO4)cc3)CC2)ccc1C1OCCO1 | 0.1 °C | > 500 nM | -1.2 °C | > 500 nM | –
N=C(N)c1ccc(OCCCCCOc2ccc(C(=N)N)cc2)cc1 [PENTAMIDINE] | 20.6 °C | 15 nM | 11.1 °C | 45 nM | 40000 nM
N=C(N)c1ccc(N2CCCN(c3ccc(C(=N)N)cc3)CC2)cc1 | 23.1 °C | 150 nM | 15 °C | 100 nM | > 204000 nM
